Key:
[1] = tested on: MCF7-cells; details: cited from earlier work
[2] = tested on: LOXIMVI melanoma cells; assay: Organotypic human epidermal skin reconstructs, LOXIMVI; assay type: cell-based; details: same treatment conditions (100 μM), untreated 100% MIB1 positive
Experimental: (§1) FIG. 11: 6-PN and 8-PN reduce proliferation and invasion of BLM and LOXIMVI melanoma cells in human epidermal skin reconstructs and induce little embryo toxicity. (A) BLM melanoma cells and keratinocytes were seeded on top of a collagen matrix populated by fibroblasts. After 16 days a keratinizing stratified epithelium with a rudimentary corium is formed. […] (B) Similar results were obtained for LOXIMVI melanoma cells under the same treatment conditions. Only nests of dead, MIB1 negative LOXIMVI cells were detected after treatment with the PNs. […]
(§2) In this assay, keratinocytes and melanoma cells are seeded on top of a collagen matrix populated by fibroblasts. […] Untreated control BLM cells (depicting 70-80% proliferation, determined by MIB1 immunhistochemistry) had formed a large tumor in the epidermal part of the reconstruct and had invaded the corium (FIG. 11A, upper panel). To determine the amount of proliferating cells, the number of MIB1 positive melanoma cells per power field in the epidermal part of the reconstruct at the epidermal-dermal border was counted (40× magnification, n=5 adjacent fields examined). Further, the number of melanoma cells invading the dermal part of the reconstruct was counted in the same high power fields. In reconstructs with untreated BLM cells, 103±15 MIB1 positive cells and 39±13 invasive cells were counted (FIG. 11A, upper panel). […]

[3] = tested on: BLM melanoma cells; assay: Organotypic human epidermal skin reconstructs, BLM; assay type: cell-based; details: 100 μM, 40× magnification
Experimental: as §1, §2

[4] = tested on: PI (3) K/Akt-signal path in MCF-7 cells; details: MCF-7 cells in vitro; cited from earlier work
[5] = tested on: primary human fibroblasts (FF868); assay: MUH proliferation assay, fibroblasts; assay type: cell-based; details: 6-PN, 8-PN 0.1 μM to 100 μM; TSA, SAHA 100 μM
Experimental: FIG. 5: real time cell monitoring of BLM and SK-MEL-28 melanoma cells treated with 6-PN and 8-PN. (A) BML and SK-MEL-28 cells were treated 24 hours after seeding with different concentrations of 6-PN and 8-PN (20 μM, 50 μM and 100 μM) over a 104 hour time period. The cellular impedance was measured over the entire observation time using the xCELLigence™ SP system and is depicted by the cell index (CI). All CI-values were normalized shortly before the treatment started. […] As a positive control, Triton X-100 0.1% was used to induce cell death. Shown are the mean±SD of three independent experiments, each performed in triplicates (B, C). […] Shown are the mean±SD; the experiments were performed in quadruplicates. (D) The MUH proliferation assay was repeated unter the same treatment conditions on primary human fibroblasts (FF868) and melanocytes (HEM1).
The cells were seeded in triplicates in 96-well plates at a density of 2,500 cells per well in 50 μl medium (5×10^4 cells per milliliter). After 24 hours, the medium was replaced by medium containing 6-PN, 8-PN (dissolved in DMSO), TSA (dissolved in EtOH) or SAHA (dissolved in DMSO) at the concentrations to be tested with or without the addition of the necrosis inhibitor IM-54 at 5 μM (Calbiochem, Darmstadt, Germany). Cells treated with culture medium without or with DMSO served as controls. The assay was started following an incubation of 24 hours. […] Plates were incubated at 37° C. for 1 hour and measured in a Fluoroskan II (Lab Systems, Helsinki, Finland) with a […]. The intensity of fluorescence indicates the number of viable cells in the wells.
Next it was asked whether the PNs also influence the proliferation of benign cells. To this end, human fibroblasts (FF) and foreskin melanocytes (HEM1) were treated with the same concentrations of 6-PN and 8-PN, and proliferation was assessed using the proliferation assay as described above.

[6] = tested on: MCF-7 breast cancer cells; assay: MUH proliferation assay, MCF-7; assay type: cell-based; details: MCF-7, rising concentrations 0.1 μM to 100 μM, 48 hours
Experimental: FIG. 6: 6-PN and 8-PN inhibit the growth of MCF-7 and HT-29. (A, B) MUH proliferation assay of HT-29 colon cancer cells and MCF-7 breast cancel cells treated with increasing concentrations of 6-PN and 8-PN (0.1 μM to 100 μM) for 48 hours. Shown are the mean±S.A.; the experiments were performed in quadruplicates.
The cells were seeded in triplicates in 96-well plates at a density of 2,500 cells per well in 50 μl medium (5×10^4 cells per milliliter). After 24 hours, the medium was replaced by medium containing 6-PN, 8-PN (dissolved in DMSO), TSA (dissolved in EtOH) or SAHA (dissolved in DMSO) at the concentrations to be tested with or without the addition of the necrosis inhibitor IM-54 at 5 μM (Calbiochem, Darmstadt, Germany). Cells treated with culture medium without or with DMSO served as controls. The assay was started following an incubation of 24 hours. The medium was discarded, each well was washed two times with PBS (without Ca^++ and Mg^++) and 100 μl of a solution containing […] of 4-methyl umbellipheryl heptanoate per ml PBS was added. Plates were incubated at 37° C. for 1 hour and measured in a Fluoroskan II (Lab Systems, Helsinki, Finland) with a […]. The intensity of fluorescence indicates the number of viable cells in the wells. […]

[7] = tested on: prostate cancer cell line PC-3; details: PC-3 in vitro; cited from earlier work

CC(C)=CCc1c(O)cc(O)c2c1OC(c1ccc(O)cc1)CC2=O (centres unmarked) [8-PN, 5,7-Dihydroxy-2-(4-hydroxy-phenyl)-8-(3-methyl-but-2-enyl)-chroman-4-one]
apoptosis [1]: induces the apoptosis
cell proliferation of LOXIMVI cells (MIB1) [2]: completely inhibited
invasive cells per high power field ([3]; untreated 39±13): 6±2
MIB1 positive cells per high power field ([3]; untreated 103±15): 16±4
activation of the PI (3) K/Akt-signal path [4]: directly inhibits
fibroblast proliferation [5]: hardly affected
cell proliferation [6]: severe reduction
antiproliferative effects [7]: antiproliferative effects

Source: patent publication US20160067211A1, “PHARMACEUTICAL COMPOSITION” (Eberhard Karls Universitaet Tuebingen Medizinische Fakultaet, priority 2013, published 2016)
